Results reported in ChEMBL document CHEMBL1137061 (Bioorg Med Chem Lett, 2004).

What was measured:
Assay type in all cases: cell membranes, Membrane
[1] = target: Neuronal acetylcholine receptor subunit alpha-7 (Rattus norvegicus, UniProt Q05941)
[2] = target: Muscarinic acetylcholine receptor; assay: Inhibition of [3H]N-methylscopolamine binding to muscarinic receptor of rat cortex membranes
[3] = target: Neuronal acetylcholine receptor; alpha4/beta2 (Rattus norvegicus, UniProt P09483+P12390); assay: Inhibition of [3H]epibatidine binding to alpha 4 beta 2 nicotinic acetylcholine receptor of rat cortex membranes
Neuronal acetylcholine receptor; alpha4/beta2, sequence (P09483 whole entry): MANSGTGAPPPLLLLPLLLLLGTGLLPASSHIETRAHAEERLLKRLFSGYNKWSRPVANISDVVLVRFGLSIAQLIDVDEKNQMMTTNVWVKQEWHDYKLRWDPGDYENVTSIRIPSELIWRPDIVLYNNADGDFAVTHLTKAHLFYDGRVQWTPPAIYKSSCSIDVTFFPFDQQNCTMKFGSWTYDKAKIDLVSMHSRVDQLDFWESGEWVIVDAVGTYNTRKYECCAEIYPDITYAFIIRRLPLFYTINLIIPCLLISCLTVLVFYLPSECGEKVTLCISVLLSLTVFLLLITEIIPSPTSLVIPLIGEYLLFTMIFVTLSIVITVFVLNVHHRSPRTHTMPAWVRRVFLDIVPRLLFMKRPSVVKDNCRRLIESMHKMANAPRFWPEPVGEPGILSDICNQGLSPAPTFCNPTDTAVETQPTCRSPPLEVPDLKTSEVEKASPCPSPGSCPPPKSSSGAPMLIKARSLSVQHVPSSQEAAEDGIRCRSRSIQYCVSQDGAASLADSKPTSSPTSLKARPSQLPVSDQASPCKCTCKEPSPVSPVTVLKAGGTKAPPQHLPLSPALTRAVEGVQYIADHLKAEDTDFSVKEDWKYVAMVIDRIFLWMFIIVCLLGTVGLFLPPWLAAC
Neuronal acetylcholine receptor; alpha4/beta2, sequence (P12390 whole entry): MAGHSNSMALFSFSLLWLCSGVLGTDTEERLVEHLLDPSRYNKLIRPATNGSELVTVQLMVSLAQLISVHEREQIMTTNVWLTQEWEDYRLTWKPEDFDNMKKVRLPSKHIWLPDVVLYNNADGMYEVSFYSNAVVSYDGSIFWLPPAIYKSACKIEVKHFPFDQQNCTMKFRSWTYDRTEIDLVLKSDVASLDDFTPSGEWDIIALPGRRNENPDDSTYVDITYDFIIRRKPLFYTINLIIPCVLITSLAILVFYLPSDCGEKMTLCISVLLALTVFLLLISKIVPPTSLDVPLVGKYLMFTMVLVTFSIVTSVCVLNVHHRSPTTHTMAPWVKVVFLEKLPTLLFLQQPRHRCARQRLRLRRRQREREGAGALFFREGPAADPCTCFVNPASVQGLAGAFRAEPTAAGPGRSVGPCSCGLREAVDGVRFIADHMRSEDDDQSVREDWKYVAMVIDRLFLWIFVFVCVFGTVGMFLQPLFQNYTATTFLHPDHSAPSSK

Neuronal acetylcholine receptor subunit alpha-7, sequence (Q05941 whole entry): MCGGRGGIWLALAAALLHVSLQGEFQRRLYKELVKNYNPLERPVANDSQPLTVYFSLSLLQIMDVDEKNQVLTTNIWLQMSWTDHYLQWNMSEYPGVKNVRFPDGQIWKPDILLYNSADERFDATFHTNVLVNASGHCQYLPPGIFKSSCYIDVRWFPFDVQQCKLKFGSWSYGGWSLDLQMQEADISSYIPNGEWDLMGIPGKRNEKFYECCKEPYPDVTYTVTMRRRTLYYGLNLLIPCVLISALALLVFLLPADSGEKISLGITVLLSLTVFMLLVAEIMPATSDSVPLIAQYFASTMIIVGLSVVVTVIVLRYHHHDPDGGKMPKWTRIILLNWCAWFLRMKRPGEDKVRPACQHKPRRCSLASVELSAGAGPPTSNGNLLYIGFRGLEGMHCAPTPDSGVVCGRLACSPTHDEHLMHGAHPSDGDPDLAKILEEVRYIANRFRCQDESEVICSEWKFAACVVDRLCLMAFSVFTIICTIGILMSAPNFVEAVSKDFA

Structure (SMILES)	Ki [1] [µM]	Ki [2] [µM]	Ki [3] [µM]
C/C=N\OC[C@@H]1CCCN1C	> 50	> 50	–
CC(C)=NO[C@H]1CCCN(C)C1	–	–	> 50
CC(C)=NOC[C@@H]1CCCN1C	49	> 50	0.52
CC(C)O/N=C/[C@@H]1CCCN1C	> 50	17	–
CC=NOC[C@@H]1CCCN1C	> 50	> 50	0.68
C/C=N\OC[C@H]1CCCN1C	–	–	5.79
CC(C)O/N=C/[C@H]1CCCN1C	47	–	5.5
CC(C)O/N=C\[C@@H]1CCCN1C	–	–	1.9
CC(C)=NO[C@@H]1CCCN(C)C1	–	–	> 50
CC(C)O/N=C\[C@H]1CCCN1C	–	–	14.5
Cc1cc([C@@H]2CCCN2C)on1 [ABT-418]	1.2	–	0.02
